# Earlier results as cited in patent US20130202650A1, “TOPICAL COMPOSITION COMPRISING A COMBINATION OF AT LEAST TWO PENETRATION ENHANCING AGENTS” (Moberg Derma AB, priority 2008, published 2013).
# Counter-ions that a name gives are not always drawn.
# Conditions: tBtOH-IPM (2:8) vehicle; mouse
compound,measurement,value
"CN1[C@@H]2CC[C@H]1C[C@@H](OC(c1ccccc1)c1ccccc1)C2 [BZ mesylate, benztropine]",BZ flux from the mesylate salt,2020 µg/cm²/h
same,"BZ flux, fold greater than from water",100 fold
same,"BZ flux, fold greater than the individual neat solvents",44-540 fold
